The nature of data set [1]: Assay (XV) subcutaneous PK in LYD-pigs, co-formulated or co-dosed with liraglutide. The following applies: administered as co-formulations to LYD pigs. The data set is classed as in vivo. The procedure: The studies were performed in female LYD pigs of SPF origin delivered from Lars Jonson, Hillerødvej 70, Lynge.
Before the animals arrived, the animal rooms and pens were cleaned and disinfected with Virkon S. During the study, the animal rooms were cleaned and washed regularly.
The pigs were group housed during the acclimatisation period. The pigs were fitted with a central venous catheter while under anaesthesia and after the single housed after catheterization in pens ≧3.1 m^2 with straw as bedding. The temperature in the rooms was set at 20−23° C. and the relative humidity to 30-70%. The rooms were illuminated to give a cycle of 12 hours light and 12 hours darkness. Light was on from 07.00 to 19.00 h.
The formulations was prepared similarly and filled in cartridges in all cases.
The animals were dosed subcutaneously as follows.
The s.c. dosing was performed in 4 mm depth, in a site of injection which was secured on beforehand by ultrasound to avoid muscular tissue or heavy vascularization. Dosing was made using NovoPen®4 and needle Novofine 28 G and a needle stopper to ensure 4 mm depth of injection. The needle was kept in the subcutis for 10 seconds after the injection to secure deposition of compound. […] The co-formulation was administered as one injection. Study was performed as a cross over study with adequate wash out between dosings.
Blood was sampled at predefined time points for up till 15 days post dosing to adequately cover the full plasma concentration-time profile of the mimylin derivative. Blood samples were drawn from a central venous catheter to jugularis made through the catheter which was afterwards flushed with 10 ml 0.9% NaCl.
For each blood sampling time point approximately 0.8 mL of whole blood was collected in a 1.5 mL EDTA coated tube, and the tube was gently turned to allowing mixing of the sample with the anticoagulant. Blood samples (for example 0.8 mL) were collected in EDTA buffer (8 mM) and then centrifuged at 4° C. and 2000 G for 10 minutes. Plasma was pipetted into Micronic tubes on dry ice, and kept at −20° C. until analysis.
Individual plasma concentration-time profiles were analysed by a non-compartmental model in Phoenix WinNonlin version 6.3 (Pharsight Inc., Mountain View, Calif., USA).
The area under the plasma concentration versus time curve (AUC, [time×concentration]) was calculated (by the Pharsight programme) after subcutaneous administration, typically until 240-288 hours post dosing, or until last measured concentration. The AUC was calculated and given as AUCinf-pred and dose normalized.
Results of co-formulation studies in LYD-pigs are summarized below

Data set [2] in a line: Assay (IV) determination of solubility. The data set is classed as physicochemical. The method, then: Assay (IV)—Determination of Solubility
The mimylin peptide was dissolved in water at ˜500 nmol/ml and mixed 1:1 with a series of buffers (100 mM glycylglycine pH 3.0, 100 mM glycylglycine pH 4.0, 100 mM glycylglycine pH 5.0, 100 mM bistrispropane pH 6.0, 100 mM bistrispropane pH 6.5, 100 mM bistrispropane pH 7.0, 100 mM bistrispropane pH 7.5, 100 mM bistrispropane pH 8.0).

Data set [3] concerns the target T1, human amylin receptor (human calcitonin receptor + human RAMP3), BHK tk'ts 13 cells (Homo sapiens, UniProt O60896+P30988).
T1 construct: expressed in transfected cells; host or cells: BHK tk'ts 13
In words: Assay (Va) binding to the human amylin receptor (whole cell). The settings on record: read-out: hAmylin-R binding IC50. The method, then: The day before the assay the cells were Seeded into Poly-D-Lysin coated 384W Opaque White, BD BioCoat plates (10000 cells/well) and Incubated overnight at 37° C., 5% CO2, 95% humidity.

The target of data set [4] is T2, human amylin 3(a) receptor (human calcitonin receptor + RAMP-3), BHK570 cells (Homo sapiens, UniProt O60896+P30988).
T2 construct: host or cells: BHK570
T2 sequence (O60896 24-148, one chain of several): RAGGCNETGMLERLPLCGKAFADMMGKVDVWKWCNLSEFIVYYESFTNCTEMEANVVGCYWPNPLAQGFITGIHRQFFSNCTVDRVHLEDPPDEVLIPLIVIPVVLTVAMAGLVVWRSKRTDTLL
As to the kind of experiment: Assay (II)b functional CRE-luciferase assay without albumin, human amylin receptor. The following applies: Tested without HSA; read-out: hAmylin-R funct. EC50. The data set is classed as cell-based. The source says:
(§1) Assay(II)b—Human Calcitonin and Amylin Receptor Assay without Albumin
(§2) 1. Luciferase Assay Outline
(§3) Activation of calcitonin and amylin (co-expression of calcitonin receptor and receptor activity modifying proteins (RAMP)) receptors lead to increased intracellular concentrations of cAMP. Consequently, transcription is activated by promoters containing multiple copies of the cAMP response element (CRE). It is thus possible to measure amylin activity by the use of a CRE luciferase reporter gene introduced into BHK cells also expressing calcitonin or amylin receptors.
(§4) 2. Construction of Calcitonin (a)—and Amylin 3(a)—Receptor/CRE-Luc Cell Line.
(§5) A BHK570 cell line was stably transfected with the human calcitonin receptor and a CRE-responsive luciferase reporter gene (Hollex-1 cell line, obtained from ZymoGenetics described in U.S. Pat. No. 5,622,839). The cell line was further transfected with RAMP-3, using standard methods. This turns the calcitonin receptor into an amylin 3(a) receptor. Methotrexate, Neomycin, and Hygromycin are selection markers for luciferase, the calcitonin receptor, and RAMP-3, respectively. To prepare the batches of frozen cells used in the luciferase assay described in the section below, the cells were cultured in growth medium (DMEM with 10% FBS, 1% Pen/Strep and 1 mM Napyruvate). […] Cells at approximately 80-90% confluence were washed with PBS and loosened from the plates with Versene. After centrifugation (2 min, 1300 rpm, in a Centrion Scientific centriuge C2 series with a BRK 5510 rotor head), the cell pellet was dissolved in 10% DMSO, 30% FBS and 60% growth medium and frozen (−80° C.) until utilization.
(§6) The day before the experiment, BHK calcitonin (a) receptor- or amylin 3(a)-receptor/CRE-luc cells were thawed, washed twice, and seeded in 40 μl growth medium on white 384 well culture plates (4.000 cells/well). On the assay day, the cells were washed 3 times in assay media (Dulbecco media W/o phenol red, 500 ml (Gibco, 11880-028); 0.1% ovalbumin; 10 mM Hepes pH 7.4; 1× Glutamin; 1% Pen/Strep). Then, 30 μl/well of sample diluted in assay buffer was added. After 3 hours of incubation at 37° C. and 5% CO2, the reaction was terminated by adding 30 μl/well SteadyLite Plus™. The plates were shaken at 300 rpm for 5 min at RT. Then, the plates were sealed and incubated at room temperature for 30 minutes. Finally, luminescence was tested on a TopCounter (Packard) in SPC (single photon counting) mode.
(§7) Additional Comment Regarding Use of Data Retrieved Via this Method
(§8) For the same reasons, measurements made in Assay IIa should not be compared in Assay IIb.

In data set [5] the target is T3, human calcitonin (a) receptor, BHK570 cells (Homo sapiens, UniProt P30988).
T3 construct: host or cells: BHK570
T3 sequence (P30988 25-474): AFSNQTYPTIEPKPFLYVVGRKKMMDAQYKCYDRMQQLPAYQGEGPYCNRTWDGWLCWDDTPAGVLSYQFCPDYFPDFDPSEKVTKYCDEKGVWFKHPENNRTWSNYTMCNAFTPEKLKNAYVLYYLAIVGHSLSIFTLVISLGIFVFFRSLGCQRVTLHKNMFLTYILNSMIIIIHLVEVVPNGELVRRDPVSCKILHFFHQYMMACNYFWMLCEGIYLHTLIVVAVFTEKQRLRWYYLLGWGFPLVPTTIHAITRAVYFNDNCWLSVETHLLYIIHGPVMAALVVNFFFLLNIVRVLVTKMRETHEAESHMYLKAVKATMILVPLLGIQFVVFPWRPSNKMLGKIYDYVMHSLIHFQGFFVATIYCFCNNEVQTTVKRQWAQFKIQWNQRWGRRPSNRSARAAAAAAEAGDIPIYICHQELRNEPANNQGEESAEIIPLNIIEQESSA
In words: Assay (II)b functional CRE-luciferase assay without albumin, human calcitonin receptor. The data set is classed as cell-based. The following applies: Tested without HSA; read-out: hCTR funct. EC50.
Description: as §1, §2, §3, §4, §5, §6, §7, §8

Each structure is given as a SMILES string. pEC50, pIC50: −log10 of the molar value. Peptide text beside a SMILES is read from it. * marks the point of attachment. C18 diacid = O=C(O)CCCCCCCCCCCCCCCCC(=O)*

The results in this text go back to US9593149B2, “Amylin and calcitonin receptor agonist” (Novo Nordisk A/S, priority 2014, dated 2017).

T1 sequence (O60896 24-148, one chain of several): as the sequence (O60896 24-148, one chain of several) above

Regarding `CCCCCCCCCCCCCCCC(=O)N[C@@H](CCC(=O)NCCCC[C@H](NC(=O)[C@H](C)NC(=O)[C@H](C)NC(=O)[C@H](CCC(N)=O)NC(=O)CNC(=O)[C@H](CCC(=O)O)NC(=O)[C@H](CC(C)C)NC(=O)[C@H](Cc1ccc(O)cc1)NC(=O)[C@H](CO)NC(=O)[C@H](CO)NC(=O)[C@@H](NC(=O)[C@H](CC(=O)O)NC(=O)[C@H](CO)NC(=O)[C@@H](NC(=O)[C@H](Cc1ccccc1)NC(=O)[C@@H](NC(=O)CNC(=O)[C@H](CCC(=O)O)NC(=O)[C@H](C)NC(=O)[C@@H](N)Cc1cnc[nH]1)[C@@H](C)O)[C@@H](C)O)C(C)C)C(=O)N[C@@H](CCC(=O)O)C(=O)N[C@@H](Cc1ccccc1)C(=O)N[C@H](C(=O)N[C@@H](C)C(=O)N[C@@H](Cc1c[nH]c2ccccc12)C(=O)N[C@@H](CC(C)C)C(=O)N[C@H](C(=O)N[C@@H](CCCNC(=N)N)C(=O)NCC(=O)N[C@@H](CCCNC(=N)N)C(=O)NCC(=O)O)C(C)C)[C@@H](C)CC)C(=O)O` [Liraglutide, N^ε26-[(4S)-4-carboxy-4-(hexadecanoylamino)butanoyl]-[Arg^34]-GLP-1-(7-37)-peptide, reference compound], in data set [1], the “effect on PK profile of the co-formulated peptide” value is given as “not affect the PK profile of Ex. compound 2 or 46”.

Turning to `CC[C@H](C)[C@H](NC(=O)[C@@H](NC(=O)[C@H](C)NC(=O)[C@@H](NC(=O)[C@H](CO)NC(=O)[C@H](CC(C)C)NC(=O)[C@H](CCC(=O)O)NC(=O)[C@H](CO)NC(=O)[C@H](C)NC(=O)[C@H](CCC(=O)O)NC(=O)CCCCCCCCCCCCCCCCC(=O)O)[C@@H](C)O)C(C)C)C(=O)NCC(=O)N[C@@H](CCCNC(=N)N)C(=O)N[C@@H](CC(C)C)C(=O)N[C@@H](CO)C(=O)N[C@@H](C)C(=O)N[C@@H](CCC(=O)O)C(=O)N[C@@H](CC(C)C)C(=O)N[C@@H](Cc1c[nH]cn1)C(=O)N[C@@H](CCC(=O)O)C(=O)N[C@@H](CC(C)C)C(=O)N[C@@H](C)C(=O)N[C@H](C(=O)N[C@@H](CC(C)C)C(=O)N1CCC[C@H]1C(=O)N[C@@H](CCCNC(=N)N)C(=O)N[C@H](C(=O)N[C@@H](CCC(=O)O)C(=O)N[C@H](C(=O)NCC(=O)N1CCC[C@H]1C(=O)N[C@@H](CCC(=O)O)C(=O)N[C@@H](CO)C(=O)N1CCC[C@H]1C(N)=O)[C@@H](C)O)[C@@H](C)O)[C@@H](C)O` [compound 26, [N-terminal(C18 diacid), 9V, 10I]mimylin] ({C18 diacid}-EASELSTAVIGRLSAELHELATLPRTETGPESP-NH2), the solubility at 18 h in data set [2] (bistrispropane buffer, pH 6.5) is at least 200 µM; in data set [2] (bistrispropane buffer, pH 7.5) it was at least 200 µM; in data set [2] (bistrispropane buffer, pH 6.0), at least 200 µM; in data set [2] (bistrispropane buffer, pH 7.0), at least 200 µM; in data set [2] (bistrispropane buffer, pH 8.0), at least 200 µM; in data set [2] (glycylglycine buffer, pH 3.0), at least 200 µM. Moreover, the solubility at 18 h in data set [2] (glycylglycine buffer, pH 4.0) was at least 200 µM; in data set [2] (glycylglycine buffer, pH 5.0), at least 200 µM. In addition, the pIC50 in data set [3] was 9.05. For the same compound, the negative-log EC50 (pEC50) in data set [4] is 11.15; in data set [5], 11.22.

One may read the solubility as the concentration that dissolves in the medium under given conditions. High values mean much dissolved substance, low ones little dissolved substance. What is called pIC50 is the IC50 on a negative log10 scale, so that one unit is a factor of ten. Broadly, the pEC50 is −log10 of the EC50, conventionally taken in molar units.
